# Experimental data reported in publication doi:10.1101/2025.11.20.689572v1 (biorxiv, 2025).
# pEC50, pKi: −log10 of the molar value. Like-named read-outs stand apart in the source and are kept apart here.
# What was measured:
# [1] = target: T1, 5-HT2B (Homo sapiens, UniProt P41595); assay: competitive radioligand binding, HEK293 membranes
# T1 construct: gene HTR2B; full-length receptor; HEK293 cell membranes
# Source text: competitive radioligand binding, HEK293 membranes on 5-HT2B
# [2] = target: T2, M1 (Homo sapiens, UniProt P11229); assay: TRUPATH BRET2 G protein dissociation, HEK293; type: cell-based; details: HBSS, […] HEPES pH […] °C; agonist mode
# T2 construct: gene CHRM1; full-length receptor; HEK293 with TRUPATH sensors (function)
# T2 sequence (P11229 1-460): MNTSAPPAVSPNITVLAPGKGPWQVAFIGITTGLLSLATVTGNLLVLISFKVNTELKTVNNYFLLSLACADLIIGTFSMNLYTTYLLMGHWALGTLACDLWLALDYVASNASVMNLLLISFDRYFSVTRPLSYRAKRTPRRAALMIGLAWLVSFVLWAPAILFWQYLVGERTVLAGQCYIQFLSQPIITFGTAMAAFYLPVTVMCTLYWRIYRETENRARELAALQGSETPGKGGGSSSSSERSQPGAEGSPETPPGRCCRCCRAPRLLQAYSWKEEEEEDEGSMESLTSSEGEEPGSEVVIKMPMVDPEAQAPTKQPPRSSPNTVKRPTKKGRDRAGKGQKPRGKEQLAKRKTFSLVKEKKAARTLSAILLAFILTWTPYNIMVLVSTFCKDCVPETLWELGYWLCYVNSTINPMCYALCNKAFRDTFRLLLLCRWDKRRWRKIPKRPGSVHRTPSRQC
# [3] = target: T3, 5-HT2A (Homo sapiens, UniProt P28223); assay: competitive radioligand binding, HEK293 membranes
# T3 construct: gene HTR2A; full-length receptor; HEK293 cell membranes
# T3 sequence (P28223 whole entry): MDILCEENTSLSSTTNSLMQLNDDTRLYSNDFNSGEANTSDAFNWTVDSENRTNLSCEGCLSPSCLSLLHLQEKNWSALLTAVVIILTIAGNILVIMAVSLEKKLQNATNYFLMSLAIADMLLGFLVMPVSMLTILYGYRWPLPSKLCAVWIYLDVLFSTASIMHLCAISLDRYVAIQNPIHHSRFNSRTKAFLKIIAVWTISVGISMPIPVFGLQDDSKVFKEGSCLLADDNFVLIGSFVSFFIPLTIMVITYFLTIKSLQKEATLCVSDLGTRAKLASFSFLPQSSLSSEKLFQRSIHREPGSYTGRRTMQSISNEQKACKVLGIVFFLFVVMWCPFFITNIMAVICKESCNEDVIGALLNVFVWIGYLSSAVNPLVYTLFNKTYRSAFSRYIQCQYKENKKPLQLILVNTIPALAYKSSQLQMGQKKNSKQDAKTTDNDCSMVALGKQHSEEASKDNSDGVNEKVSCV
# Source text: competitive radioligand binding, HEK293 membranes on 5-HT2A
# [4] = target: CHRM3 (Homo sapiens, UniProt P20309); assay: cell-based; parameters: PRESTO-Tango beta-arrestin2 recruitment, luciferase luminescence, concentration-response; details: HTLA, Assay=Tango, agonist mode, % of control agonist
# Sequence of CHRM3 (P20309 whole entry): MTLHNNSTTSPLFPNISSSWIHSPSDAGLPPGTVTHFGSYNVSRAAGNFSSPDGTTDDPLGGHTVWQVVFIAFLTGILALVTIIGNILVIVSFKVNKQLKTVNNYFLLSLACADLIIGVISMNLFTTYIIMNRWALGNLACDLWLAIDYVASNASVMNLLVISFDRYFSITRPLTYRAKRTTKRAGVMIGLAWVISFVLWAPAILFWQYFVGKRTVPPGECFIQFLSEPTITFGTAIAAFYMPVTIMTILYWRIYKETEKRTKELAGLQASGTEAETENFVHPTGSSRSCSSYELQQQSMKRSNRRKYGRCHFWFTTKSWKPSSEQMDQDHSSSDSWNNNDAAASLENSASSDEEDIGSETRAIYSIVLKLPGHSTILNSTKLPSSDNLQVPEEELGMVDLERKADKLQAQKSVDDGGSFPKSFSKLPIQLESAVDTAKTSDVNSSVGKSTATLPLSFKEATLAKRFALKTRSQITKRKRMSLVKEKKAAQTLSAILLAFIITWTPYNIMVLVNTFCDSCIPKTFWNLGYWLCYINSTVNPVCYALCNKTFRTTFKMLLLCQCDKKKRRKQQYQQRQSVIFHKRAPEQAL
# Procedure: (§1) Off-target agonism across the human GPCRome was profiled using PRESTO-Tango, following established protocols with minor adaptations [10]–[12]. […] After ~6 h recovery, cells were transfected with 20 ng plasmid DNA per well and incubated overnight. The next day, 10 µL of test compound (prepared in DMEM + 1% dFBS) was added, and plates were incubated overnight. Media and compounds were removed, and 20 µL per well of Bright-Glo luciferase reagent diluted in assay buffer (Hank’s Balanced Salt Solution (HBSS), 20 mM HEPES, pH 7.4) was added. After 20 min at room temperature (dark), luminescence was recorded. Each plate included the dopamine D2 receptor (DRD2) stimulated with 100 nM quinpirole as a positive control. For the GPCRome screen, each receptor was tested in quadruplicate at 0 and 10 µM compound (final). Responses were expressed as fold change relative to the basal (0 µM) condition. Follow-up concentration–response assays were performed under identical conditions except that serial dilutions of compounds (maximum ~30 µM, final) were added to generate full concentration–response curves.
# [5] = target: T4, CHRM5 (Homo sapiens, UniProt P08912); assay: cell-based; parameters: PRESTO-Tango beta-arrestin2 recruitment, luciferase luminescence, concentration-response; details: HTLA, Assay=Tango, agonist mode, % of control agonist
# T4 sequence (P08912 1-532): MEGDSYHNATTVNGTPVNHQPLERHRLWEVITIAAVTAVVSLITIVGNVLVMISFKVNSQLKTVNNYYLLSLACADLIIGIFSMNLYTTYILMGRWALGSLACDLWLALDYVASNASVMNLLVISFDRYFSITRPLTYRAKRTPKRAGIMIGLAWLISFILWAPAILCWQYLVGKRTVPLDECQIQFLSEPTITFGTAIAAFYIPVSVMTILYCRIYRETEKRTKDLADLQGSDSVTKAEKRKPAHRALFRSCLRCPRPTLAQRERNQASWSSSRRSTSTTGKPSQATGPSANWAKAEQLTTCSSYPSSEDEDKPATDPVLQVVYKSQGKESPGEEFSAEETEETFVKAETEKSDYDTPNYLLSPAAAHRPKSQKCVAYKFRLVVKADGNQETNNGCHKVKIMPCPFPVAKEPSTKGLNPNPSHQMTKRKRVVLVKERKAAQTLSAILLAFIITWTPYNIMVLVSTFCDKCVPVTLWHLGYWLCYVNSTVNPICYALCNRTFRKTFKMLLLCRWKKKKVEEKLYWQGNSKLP
# Procedure: as §1
# [6] = target: HRH3 (Homo sapiens, UniProt Q9Y5N1); assay: cell-based; parameters: species or system HEK293; TRUPATH BRET2 G-protein dissociation; antagonist mode against agonist EC80; details: agonist mode
# Sequence of HRH3 (Q9Y5N1 whole entry): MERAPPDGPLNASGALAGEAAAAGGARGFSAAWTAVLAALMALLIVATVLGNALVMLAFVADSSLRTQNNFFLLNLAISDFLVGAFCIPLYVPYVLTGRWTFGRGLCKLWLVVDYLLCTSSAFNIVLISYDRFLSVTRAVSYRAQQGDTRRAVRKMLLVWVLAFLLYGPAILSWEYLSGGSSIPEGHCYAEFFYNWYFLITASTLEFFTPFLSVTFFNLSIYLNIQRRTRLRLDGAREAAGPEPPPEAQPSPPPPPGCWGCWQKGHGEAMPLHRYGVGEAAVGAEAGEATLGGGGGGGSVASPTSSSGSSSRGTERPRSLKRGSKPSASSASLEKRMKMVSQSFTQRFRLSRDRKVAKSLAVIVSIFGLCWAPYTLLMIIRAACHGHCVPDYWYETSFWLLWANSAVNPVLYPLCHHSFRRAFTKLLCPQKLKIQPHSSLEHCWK
# [7] = target: T5, HTR1A (Homo sapiens, UniProt P08908); assay: cell-based; parameters: species or system HEK293; TRUPATH BRET2 G-protein dissociation; antagonist mode against agonist EC80; details: agonist mode
# T5 sequence (P08908 1-422): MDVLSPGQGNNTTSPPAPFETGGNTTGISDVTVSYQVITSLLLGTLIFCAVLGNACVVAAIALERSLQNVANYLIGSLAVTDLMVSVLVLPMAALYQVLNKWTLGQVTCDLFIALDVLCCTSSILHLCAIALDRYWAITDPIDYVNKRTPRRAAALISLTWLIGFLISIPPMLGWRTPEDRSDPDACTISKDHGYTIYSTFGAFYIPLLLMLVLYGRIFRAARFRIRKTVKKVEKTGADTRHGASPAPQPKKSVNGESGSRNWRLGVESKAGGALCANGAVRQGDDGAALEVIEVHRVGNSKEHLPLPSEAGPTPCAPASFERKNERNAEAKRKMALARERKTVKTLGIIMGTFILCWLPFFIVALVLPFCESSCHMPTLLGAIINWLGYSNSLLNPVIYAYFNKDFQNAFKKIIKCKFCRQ
# [8] = read-out: N-Desmethyl Xanomeline
# [9] = N-Desmethyl Xanomeline, Assay=Gi2
# [10] = N-Desmethyl Xanomeline, Assay=GoB
# T1 sequence (P41595 whole entry): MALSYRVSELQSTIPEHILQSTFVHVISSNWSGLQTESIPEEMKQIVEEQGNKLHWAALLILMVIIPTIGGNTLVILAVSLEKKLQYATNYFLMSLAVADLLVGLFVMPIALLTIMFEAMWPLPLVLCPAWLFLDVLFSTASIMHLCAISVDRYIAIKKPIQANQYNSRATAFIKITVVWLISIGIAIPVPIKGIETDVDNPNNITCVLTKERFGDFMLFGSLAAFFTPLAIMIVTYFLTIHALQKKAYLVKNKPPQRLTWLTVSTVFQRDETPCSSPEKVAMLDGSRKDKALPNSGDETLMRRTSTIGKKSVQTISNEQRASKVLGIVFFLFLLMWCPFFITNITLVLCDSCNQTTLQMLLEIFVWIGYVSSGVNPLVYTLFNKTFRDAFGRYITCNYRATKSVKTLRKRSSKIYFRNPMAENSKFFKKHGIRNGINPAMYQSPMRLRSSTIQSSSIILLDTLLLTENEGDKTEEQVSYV
SMILES,pKi [1],EC50 [2],pKi [3],"Emax [4, 8]","Emax [5, 8]","pEC50 ([6]; N-Desmethyl Xanomeline, Assay=Gi1)","pEC50 [6, 9]","pEC50 ([6]; N-Desmethyl Xanomeline, Assay=Gi3)","pEC50 [6, 10]","pEC50 [7, 9]","pEC50 ([7]; N-Desmethyl Xanomeline, Assay=GoA)","pEC50 [7, 10]",Emax ([4]; read-out: Xanomeline),Emax ([5]; read-out: Xanomeline),"pEC50 ([6]; Xanomeline, Assay=Gi2)","pEC50 ([6]; Xanomeline, Assay=GoA)","pEC50 ([6]; Xanomeline, Assay=GoB)","pEC50 ([7]; Xanomeline, Assay=Gi2)","pEC50 ([7]; Xanomeline, Assay=GoA)","pEC50 ([7]; Xanomeline, Assay=GoB)"
CCCCCCOc1nsnc1C1=CCCNC1 [N-desmethylxanomeline],7.80,differential activation of M1-M5 muscarinic receptor transducers,6.27,32.1%,48.2%,4.96,5.34,4.73,5.15,5.36,5.88,5.70,,,,,,,,
CCCCCCOc1nsnc1C1=CCCN(C)C1 [Xanomeline],7.40,xanomeline being more potent and efficacious than carbachol at M1 and M4 muscarinic receptors,6.60,,,,,,,,,,42.8%,70.1%,4.99,5.38,5.58,4.93,5.63,5.43
